# Test results reported in ChEMBL document CHEMBL1201862, “PubChem BioAssay data set” (2004).
#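 These data come from cells grown in 96-well plates and exposed to compound for 48 hours at five concentrations. Here, GI50 denotes the concentration required for 50% inhibition of growth.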 Calls of active or inactive are those of the source. Cut-off read from the data, not from the text of the source: active = GI50 up to about 1.1 µM and inactive = higher.
# What was measured:
# Experiment in all cases: NCI anticancer screen, dose series, 48 h
# [1] = system: OVCAR-8
# [2] = system: K562
# [3] = system: OVCAR-4
# [4] = system: MCF7
# [5] = system: UACC-62
# [6] = system: PC-3
# [7] = system: U-251
# [8] = system: BT-549
# [9] = system: MDA-N
# [10] = system: SF-268
# [11] = system: Malme-3M
# [12] = system: SK-MEL-5
# [13] = system: RPMI-8226
# [14] = system: M14
# [15] = system: SNB-75
# [16] = system: A549
# [17] = system: DU-145
# [18] = system: NCI-H23
# [19] = system: ACHN
# [20] = system: HCT-116
# [21] = system: SN12C
# [22] = system: IGROV-1
# [23] = system: T47D
# [24] = system: SR
# [25] = system: HOP-62
# [26] = system: NCI/ADR-RES
# [27] = system: UO-31
# [28] = system: RXF 393
# [29] = system: NCI-H522
# [30] = system: HT-29
# [31] = system: SK-MEL-2
# [32] = system: OVCAR-3
# [33] = system: SW-620
# [34] = system: EKVX
# [35] = system: SNB-19
# [36] = system: HOP-92
# [37] = system: MDA-MB-231
# [38] = system: HCC 2998
# [39] = system: SF-539
# [40] = system: NCI-H226
# [41] = system: A498
# [42] = system: SK-MEL-28
# [43] = system: 786-0
# [44] = system: HL-60
# [45] = system: OVCAR-5
# [46] = system: HCT-15
# [47] = system: CCRF-CEM
# [48] = system: NCI-H460
# [49] = system: COLO 205
# [50] = system: MDA-MB-435
# [51] = system: LOX IMVI
# [52] = system: MOLT-4
# [53] = system: Hs-578T
# [54] = system: KM12
# [55] = system: SF-295
# [56] = system: CAKI-1
# [57] = system: UACC-257
# [58] = system: TK-10
smiles,measurement,setting,value
N#Cc1ccnc(C(=O)N2CCCC2C(=O)O)c1 (stereo not drawn),GI50,[1],> 100 µM (inactive)
same,GI50,[2],> 82.8 µM (inactive)
same,GI50,[3],> 100 µM (inactive)
same,GI50,[4],> 100 µM (inactive)
same,GI50,[5],> 100 µM (inactive)
same,GI50,[6],> 100 µM (inactive)
same,GI50,[7],> 100 µM (inactive)
same,GI50,[8],> 100 µM (inactive)
same,GI50,[9],> 100 µM (inactive)
same,GI50,[10],> 100 µM (inactive)
same,GI50,[11],> 100 µM (inactive)
same,GI50,[12],> 100 µM (inactive)
same,GI50,[13],> 100 µM (inactive)
same,GI50,[14],> 100 µM (inactive)
same,GI50,[15],> 100 µM (inactive)
same,GI50,[16],> 100 µM (inactive)
same,GI50,[17],> 100 µM (inactive)
same,GI50,[18],> 100 µM (inactive)
same,GI50,[19],> 100 µM (inactive)
same,GI50,[20],> 100 µM (inactive)
same,GI50,[21],> 100 µM (inactive)
same,GI50,[22],> 100 µM (inactive)
same,GI50,[23],> 100 µM (inactive)
same,GI50,[24],> 100 µM (inactive)
same,GI50,[25],> 100 µM (inactive)
same,GI50,[26],> 100 µM (inactive)
same,GI50,[27],> 100 µM (inactive)
same,GI50,[28],> 100 µM (inactive)
same,GI50,[29],> 100 µM (inactive)
same,GI50,[30],> 100 µM (inactive)
same,GI50,[31],> 100 µM (inactive)
same,GI50,[32],> 100 µM (inactive)
same,GI50,[33],> 100 µM (inactive)
same,GI50,[34],> 100 µM (inactive)
same,GI50,[35],> 100 µM (inactive)
same,GI50,[36],> 100 µM (inactive)
same,GI50,[37],> 100 µM (inactive)
same,GI50,[38],> 100 µM (inactive)
same,GI50,[39],> 100 µM (inactive)
same,GI50,[40],> 100 µM (inactive)
same,GI50,[41],> 100 µM (inactive)
same,GI50,[42],> 100 µM (inactive)
same,GI50,[43],> 100 µM (inactive)
same,GI50,[44],> 100 µM (inactive)
same,GI50,[45],> 100 µM (inactive)
same,GI50,[46],> 100 µM
same,GI50,[47],> 100 µM (inactive)
same,GI50,[48],> 100 µM (inactive)
same,GI50,[49],> 100 µM (inactive)
same,GI50,[50],> 100 µM (inactive)
same,GI50,[51],> 100 µM (inactive)
same,GI50,[52],> 100 µM (inactive)
same,GI50,[53],> 100 µM (inactive)
same,GI50,[54],> 100 µM (inactive)
same,GI50,[55],> 100 µM (inactive)
same,GI50,[56],> 100 µM (inactive)
same,GI50,[57],> 100 µM (inactive)
same,GI50,[58],> 100 µM (inactive)
